Experimental data: patent US12180207B2 (ARRAY BIOPHARMA INC., priority 2018, dated 2024)

Tests used:
dephosphorylated FGFR2 = dephosphorylated FGFR2 (Homo sapiens (Human), UniProt P21802); assay: FGFR enzyme binding assay (HTRF tracer displacement), FGFR2; conditions: 5 nM dephosphorylated FGFR2, average of multiple determinations if made
Method in brief: (§1)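 Kinase and tracer were incubated with compound for 60 minutes at 22° C. Tracer displacement was then measured by HTRF, and results were expressed as POC with 1 μM control inhibitor defining full displacement.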

[1] = molecular target: HEK-293 cells transfected with dox-inducible human wild type FGFR3 (Homo sapiens (Human), UniProt P22607); assay: FGFR3 pERK cell assay; type: cell-based; conditions: HEK-293 dox-inducible FGFR3, 1 hour compound, 100 ng/ml FGF-acidic; maximum concentration 5 μM
Sequence of HEK-293 cells transfected with dox-inducible human wild type FGFR3 (P22607 23-806): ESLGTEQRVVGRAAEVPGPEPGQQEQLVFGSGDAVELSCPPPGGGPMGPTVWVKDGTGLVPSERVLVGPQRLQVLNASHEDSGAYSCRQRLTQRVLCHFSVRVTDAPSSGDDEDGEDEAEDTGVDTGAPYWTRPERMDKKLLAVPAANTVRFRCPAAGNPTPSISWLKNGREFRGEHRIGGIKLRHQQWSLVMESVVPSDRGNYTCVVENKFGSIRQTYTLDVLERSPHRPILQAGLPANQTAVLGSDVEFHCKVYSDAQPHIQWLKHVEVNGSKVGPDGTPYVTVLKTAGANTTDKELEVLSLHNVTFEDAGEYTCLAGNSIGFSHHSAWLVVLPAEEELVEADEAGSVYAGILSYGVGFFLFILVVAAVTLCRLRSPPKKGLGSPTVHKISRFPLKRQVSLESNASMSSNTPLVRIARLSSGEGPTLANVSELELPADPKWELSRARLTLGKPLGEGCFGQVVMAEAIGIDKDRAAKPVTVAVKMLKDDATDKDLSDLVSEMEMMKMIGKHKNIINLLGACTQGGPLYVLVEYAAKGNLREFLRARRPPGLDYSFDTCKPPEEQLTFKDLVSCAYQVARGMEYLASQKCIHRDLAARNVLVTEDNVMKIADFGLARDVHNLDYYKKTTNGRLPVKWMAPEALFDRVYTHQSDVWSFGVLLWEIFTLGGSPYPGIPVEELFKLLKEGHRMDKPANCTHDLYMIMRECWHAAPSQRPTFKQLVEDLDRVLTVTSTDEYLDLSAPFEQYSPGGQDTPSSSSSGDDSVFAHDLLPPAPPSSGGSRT
Method in brief: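 Doxycycline-induced cells preincubated 1 h at 37 °C with compound (1:3 dilutions, top 5 μM final), then stimulated 5 min with 100 ng/ml FGF-acidic. Lysate phospho-ERK1/2 measured by MSD sandwich assay; IC50 at 50 POC from 4-parameter fit, normalised to no-compound and control-compound wells.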

[2] = molecular target: phosphorylated FGFR3 (SEQ ID NO: 5, amino acids 449 to 759) (Homo sapiens (Human), UniProt P22607); assay: FGFR enzyme binding assay (HTRF tracer displacement), FGFR3; conditions: 5 nM phosphorylated FGFR3, average of multiple determinations if made
Sequence of phosphorylated FGFR3 (SEQ ID NO: 5, amino acids 449 to 759) (P22607 449-759): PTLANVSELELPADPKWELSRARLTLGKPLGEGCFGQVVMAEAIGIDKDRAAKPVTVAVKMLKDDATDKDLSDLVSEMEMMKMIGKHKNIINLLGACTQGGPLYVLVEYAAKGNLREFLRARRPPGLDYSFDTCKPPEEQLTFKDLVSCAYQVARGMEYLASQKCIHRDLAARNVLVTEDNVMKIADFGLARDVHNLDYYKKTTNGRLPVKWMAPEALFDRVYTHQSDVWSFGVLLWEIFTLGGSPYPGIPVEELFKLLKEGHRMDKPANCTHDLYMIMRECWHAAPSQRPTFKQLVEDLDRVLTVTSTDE
Method in brief: as §1

[3] = molecular target: recombinant human FGFR1 catalytic domain (amino acids 308-731) (Homo sapiens (Human), UniProt P11362); assay: FGFR1 enzyme activity assay (LanthaScreen TR-FRET); type: biochemical; conditions: 20 min incubation at 22° C., average of multiple determinations if made, read-out: FGFR1 Enz FRET IC50
Sequence of recombinant human FGFR1 catalytic domain (amino acids 308-731) (P11362 other isoform, or with tags, fused parts or gaps): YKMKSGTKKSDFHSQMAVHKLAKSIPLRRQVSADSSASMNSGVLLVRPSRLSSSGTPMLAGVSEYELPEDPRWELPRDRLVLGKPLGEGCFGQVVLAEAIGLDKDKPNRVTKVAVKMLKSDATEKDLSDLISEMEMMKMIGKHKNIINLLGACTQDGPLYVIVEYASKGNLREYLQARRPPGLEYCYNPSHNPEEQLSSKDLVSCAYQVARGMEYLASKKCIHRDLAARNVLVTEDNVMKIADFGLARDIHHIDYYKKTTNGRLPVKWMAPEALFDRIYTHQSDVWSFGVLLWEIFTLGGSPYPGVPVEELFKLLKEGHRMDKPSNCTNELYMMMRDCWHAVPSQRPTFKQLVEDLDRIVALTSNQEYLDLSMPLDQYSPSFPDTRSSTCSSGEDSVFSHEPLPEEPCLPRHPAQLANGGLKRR
Method in brief: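 His-tagged FGFR1 kinase domain with 100 nM Alexa Fluor 647-poly-GT peptide and ATP in pH 7.5 HEPES/MgCl2 buffer with 2% DMSO, 20 min at 22 °C. Quenched with EDTA plus 2 nM Eu-PY20 antibody and read after 60 min. IC50 comes from a 4-parameter fit of percent of control.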

[4] = molecular target: recombinant human FGFR2 cytoplasmic domain (amino acids 403-822) (Homo sapiens (Human), UniProt P21802); assay: FGFR2 enzyme activity assay (LanthaScreen TR-FRET); type: biochemical; conditions: 15 μM ATP, 20 min incubation at 22° C., average of multiple determinations if made, read-out: FGFR2 Enz FRET IC50
Sequence of recombinant human FGFR2 cytoplasmic domain (amino acids 403-822) (P21802 402-821): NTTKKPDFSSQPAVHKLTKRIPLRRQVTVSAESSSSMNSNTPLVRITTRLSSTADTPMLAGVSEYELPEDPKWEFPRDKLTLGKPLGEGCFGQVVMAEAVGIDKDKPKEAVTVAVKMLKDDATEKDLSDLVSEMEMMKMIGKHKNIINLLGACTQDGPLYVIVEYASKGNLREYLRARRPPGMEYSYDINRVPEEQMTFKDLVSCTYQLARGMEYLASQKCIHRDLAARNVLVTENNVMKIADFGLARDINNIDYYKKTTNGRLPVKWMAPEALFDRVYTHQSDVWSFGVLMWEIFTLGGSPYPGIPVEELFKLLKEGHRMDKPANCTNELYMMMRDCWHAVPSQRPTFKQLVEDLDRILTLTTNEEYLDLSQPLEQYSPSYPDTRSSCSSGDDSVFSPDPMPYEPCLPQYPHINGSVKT
Method in brief: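 Substrate phosphorylation was read by TR-FRET using Eu-PY20 antibody (60 min, 22 °C) after a 20 min, 22 °C reaction. The reaction used 15 μM ATP, 100 nM fluorescent poly-GT peptide and His-tagged FGFR2 403-822 ([…]) at pH 7.5 with 2% DMSO.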

Sequence of dephosphorylated FGFR2 (P21802 22-821): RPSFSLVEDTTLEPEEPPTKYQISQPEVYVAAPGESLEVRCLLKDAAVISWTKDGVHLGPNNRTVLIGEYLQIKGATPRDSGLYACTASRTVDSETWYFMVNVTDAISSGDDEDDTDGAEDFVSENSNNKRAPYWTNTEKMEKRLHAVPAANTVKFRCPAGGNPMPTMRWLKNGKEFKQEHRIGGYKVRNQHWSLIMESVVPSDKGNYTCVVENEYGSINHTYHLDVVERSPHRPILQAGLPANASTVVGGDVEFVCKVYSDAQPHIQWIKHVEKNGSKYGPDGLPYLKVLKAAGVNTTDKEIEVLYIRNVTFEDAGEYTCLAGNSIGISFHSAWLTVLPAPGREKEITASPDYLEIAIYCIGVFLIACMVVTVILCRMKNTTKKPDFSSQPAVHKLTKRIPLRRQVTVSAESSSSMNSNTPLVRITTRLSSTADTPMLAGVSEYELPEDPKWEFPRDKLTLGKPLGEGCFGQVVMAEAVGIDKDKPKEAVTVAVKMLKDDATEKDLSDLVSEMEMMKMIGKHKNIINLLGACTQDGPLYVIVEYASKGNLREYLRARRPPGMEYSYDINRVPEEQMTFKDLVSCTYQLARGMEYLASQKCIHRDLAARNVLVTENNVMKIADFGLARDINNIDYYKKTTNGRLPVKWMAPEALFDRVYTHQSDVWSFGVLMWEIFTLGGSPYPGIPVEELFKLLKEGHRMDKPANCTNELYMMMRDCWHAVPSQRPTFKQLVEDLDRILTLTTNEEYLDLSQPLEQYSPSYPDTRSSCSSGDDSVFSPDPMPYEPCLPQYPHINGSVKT

`COc1cc(-c2cnn(C3CCN(CC4(OC)CN(C(=O)/C=C/CN(C)C)C4)CC3)c2C)cn2ncc(Cl)c12` [Example 173, (E)-1-(3-((4-(4-(3-chloro-4-methoxypyrazolo [1,5-a]pyridin-6-yl)-5-methyl-1H-pyrazol-1-yl)piperidin-1-yl)methyl)-3-methoxyazetidin-1-yl)-4-(dimethylamino)but-2-en-1-one] gave an IC50 (dephosphorylated FGFR2) of 0.045 µM, an IC50 [1] of 0.164 µM and an IC50 [2] of 0.007 µM. The IC50 [3] was 0.281 µM and the IC50 [4] was 0.028 µM.

`COc1cc(-c2cnn(C3CCN(C(=O)C4CN(C(=O)C#CCO)C4)CC3)c2)cn2ncc(C#N)c12` [Example 179, 6-(1-(1-(1-(4-hydroxybut-2-ynoyl)azetidine-3-carbonyl)piperidin-4-yl)-1H-pyrazol-4-yl)-4-methoxypyrazolo[1,5-a]pyridine-3-carbonitrile] gave an IC50 (dephosphorylated FGFR2) of 0.006 µM, an IC50 [1] of 0.236 µM and an IC50 [2] of 0.001 µM. The IC50 [3] was 0.015 µM and the IC50 [4] was 0.003 µM.

With `COc1cc(-c2cnn(C3CCN(C(=O)C4CN(C(=O)/C=C/CCl)C4)CC3)c2)cn2ncc(C#N)c12` [Example 181, (E)-6-(1-(1-(1-(4-chlorobut-2-enoyl)azetidine-3-carbonyl)piperidin-4-yl)-1H-pyrazol-4-yl)-4-methoxypyrazolo[1,5-a]pyridine-3-carbonitrile] the IC50 (dephosphorylated FGFR2) was 0.012 µM, the IC50 [1] was 0.034 µM and the IC50 [2] was 0.003 µM. The IC50 [3] was 0.009 µM and the IC50 [4] was 0.002 µM.

`COc1cc(-c2cnn(C3CCN(C(=O)C4CN(C(=O)/C=C/CN5CC[C@H](F)C5)C4)CC3)c2)cn2ncc(C#N)c12` [Example 182, (S,E)-6-(1-(1-(1-(4-(3-fluoropyrrolidin-1-yl)but-2-enoyl)azetidine-3-carbonyl)piperidin-4-yl)-1H-pyrazol-4-yl)-4-methoxypyrazolo[1,5-a]pyridine-3-carbonitrile] was tested, and the IC50 (dephosphorylated FGFR2) was 0.015 µM, the IC50 [1] was 0.348 µM and the IC50 [2] was 0.002 µM. For the same compound, the IC50 [3] was 0.012 µM and the IC50 [4] was 0.003 µM.

`COc1cc(-c2cnn(C3CCN(C(=O)C4CN(C(=O)/C=C/CN5CC[C@@H](F)C5)C4)CC3)c2)cn2ncc(C#N)c12` [Example 183, (R,E)-6-(1-(1-(1-(4-(3-fluoropyrrolidin-1-yl)but-2-enoyl)azetidine-3-carbonyl)piperidin-4-yl)-1H-pyrazol-4-yl)-4-methoxypyrazolo[1,5-a]pyridine-3-carbonitrile] gave an IC50 (dephosphorylated FGFR2) of 0.019 µM, an IC50 [1] of 0.592 µM and an IC50 [2] of 0.004 µM. The IC50 [3] was 0.016 µM and the IC50 [4] was 0.004 µM.

Work on `COc1cc(-c2cnn(C3CCN(C(=O)C4CN(C(=O)/C=C/CN5CCOCC5)C4)CC3)c2)cn2ncc(C#N)c12` [Example 184, (E)-4-methoxy-6-(1-(1-(1-(4-morpholinobut-2-enoyl)azetidine-3-carbonyl)piperidin-4-yl)-1H-pyrazol-4-yl)pyrazolo[1,5-a]pyridine-3-carbonitrile] yielded an IC50 (dephosphorylated FGFR2) of 0.02 µM, an IC50 [1] of 2.83 µM and an IC50 [2] of 0.006 µM. It also gave an IC50 [3] of 0.015 µM and an IC50 [4] of 0.004 µM.
